This is an account of results in US8022035B2, “Y4 selective receptor agonists for therapeutic interventions” (7TM Pharma A/S, priority 2005, dated 2011).

pEC50: −log10 of the molar value. Read-outs that look alike come from different tables or passages of the source. Where no end group is shown, it is not given here.

Common to all, as to assay type: cell-based
In one assay the target is T1, human Y2 receptor (Homo sapiens, UniProt P49146).
T1 construct: expressed in transfected cells; host or cells: COS-7 cells, transient transfection, co-transfected with Gqi5
T1 sequence (P49146 1-381): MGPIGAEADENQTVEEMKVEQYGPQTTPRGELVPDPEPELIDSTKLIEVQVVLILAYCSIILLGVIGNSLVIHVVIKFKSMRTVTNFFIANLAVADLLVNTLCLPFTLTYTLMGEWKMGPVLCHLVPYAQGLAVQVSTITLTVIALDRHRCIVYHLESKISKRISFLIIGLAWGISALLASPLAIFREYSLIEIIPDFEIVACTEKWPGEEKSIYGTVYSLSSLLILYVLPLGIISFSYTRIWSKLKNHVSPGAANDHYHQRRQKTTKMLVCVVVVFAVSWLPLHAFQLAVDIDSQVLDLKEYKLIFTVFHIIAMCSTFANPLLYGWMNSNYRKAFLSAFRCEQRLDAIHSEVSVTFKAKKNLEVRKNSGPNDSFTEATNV
The assay can be described thus: Human Y2 receptor potency assay (inositol phosphate turnover). The method, then:
Potency of the test compounds on the human Y2 receptor is determined by performing dose-response experiments in COS-7 cells transiently transfected with the human Y2 receptor as well as a promiscuous G protein, Gqi5 which ensures that the Y2 receptor couples through a Gq pathway leading to an increase in inositol phosphate turnover. […] After stimulation with various concentrations of peptide for 45 min at 37 C, cells are extracted with 10% ice-cold perchloric acid followed by incubation on ice for 30 min. […] Determinations are made in duplicates.

The target of the next assay is T2, human Y4 receptor (Homo sapiens, UniProt P50391).
T2 construct: expressed in transfected cells; host or cells: COS-7 cells
The assay can be described thus: Human Y4 receptor potency assay (inositol phosphate turnover). The method, then:
After stimulation with various concentrations of peptide for 45 min at 37 C, cells are extracted with 10% ice-cold perchloric acid followed by incubation on ice for 30 min. The resulting supernatants are neutralized with KOH in HEPES buffer, and the generated [3H]-inositol phosphate are purified on Bio-Rad AG 1-X8 anion-exchange resin and counted in a beta counter. Determinations are made in duplicates. […] Protocol as for the Y2 potency assay, except that human Y4-transformed COS-7 cells are used.

The target in the next assay is T3, human Y1 receptor (Homo sapiens, UniProt P25929).
T3 construct: expressed in transfected cells; host or cells: COS-7 cells
T3 sequence (P25929 1-384): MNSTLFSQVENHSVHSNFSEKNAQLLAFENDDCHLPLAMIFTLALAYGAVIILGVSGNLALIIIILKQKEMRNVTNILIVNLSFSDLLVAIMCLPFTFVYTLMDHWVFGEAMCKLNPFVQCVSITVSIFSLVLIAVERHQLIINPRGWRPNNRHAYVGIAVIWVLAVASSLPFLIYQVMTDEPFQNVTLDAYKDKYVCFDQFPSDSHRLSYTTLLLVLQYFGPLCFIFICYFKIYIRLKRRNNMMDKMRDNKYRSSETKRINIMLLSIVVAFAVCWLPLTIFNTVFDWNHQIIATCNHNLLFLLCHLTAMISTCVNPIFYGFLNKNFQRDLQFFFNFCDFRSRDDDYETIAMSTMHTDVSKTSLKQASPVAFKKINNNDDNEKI
The assay can be described thus: Human Y1 receptor potency assay (inositol phosphate turnover). The method, then:
Cells are washed twice in buffer, 20 mM HEPES, pH 7.4, supplemented with 140 mM NaCl, 5 mM KCl, 1 mM MgSO4, 1 mM CaCl2, 10 mM glucose, 0.05% (w/v) bovine serum; and are incubated in 0.5 ml buffer supplemented with 10 mM LiCl at 37 C for 30 min. After stimulation with various concentrations of peptide for 45 min at 37 C, cells are extracted with 10% ice-cold perchloric acid followed by incubation on ice for 30 min. The resulting supernatants are neutralized with KOH in HEPES buffer, and the generated [3H]-inositol phosphate are purified on Bio-Rad AG 1-X8 anion-exchange resin and counted in a beta counter. Determinations are made in duplicates. EC50 values were calculated using a standard pharmacological data handling software, Prism 3.0 (graphpad Sofware, San Diego, USA).
Protocol as for the Y2 potency assay, except that human Y1-transformed COS-7 cells are used.

Where [1] appears, read: COS-7 cells transiently transfected with human Y2 receptor and Gqi5, [3H]-inositol phosphate turnover, peptide 45 min at 37 C, read-out: hY2 EC50.
Setting [2] is: human Y1-transformed COS-7 cells, [3H]-inositol phosphate turnover, peptide 45 min at 37 C, read-out: hY1 EC50.

T2 sequence (P50391 whole entry): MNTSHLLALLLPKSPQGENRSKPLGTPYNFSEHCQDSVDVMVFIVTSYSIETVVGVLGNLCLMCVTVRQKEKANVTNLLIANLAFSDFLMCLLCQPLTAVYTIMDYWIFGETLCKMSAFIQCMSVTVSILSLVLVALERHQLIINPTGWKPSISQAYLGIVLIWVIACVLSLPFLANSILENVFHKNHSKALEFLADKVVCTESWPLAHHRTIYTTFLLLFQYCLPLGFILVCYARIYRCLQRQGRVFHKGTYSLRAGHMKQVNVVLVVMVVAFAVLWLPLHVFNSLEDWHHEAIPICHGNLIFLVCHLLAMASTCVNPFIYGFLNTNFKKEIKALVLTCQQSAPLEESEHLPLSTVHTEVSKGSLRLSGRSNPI

Regarding “PLEPVYPGENATPEQLAQYAADLRRYINTLTRPRY-NH2 [[Glu10;Leu17;Thr-30]-PP(2-36), [Glu10, Leu17, Thr30]PP2-36]”, the pEC50 (usually the EC50 on a negative log10 scale, so that one unit is a factor of ten) at human Y2 receptor is below 6.00; on human Y4 receptor it was 8.97; at human Y1 receptor, below 6.00.
Take “PLEPVYPGDNATPEQMAQYAADLRRYINQLTRPRY-NH2 [[Gln-30]-PP(2-36), [Gln30]PP2-36]”: the pEC50 at human Y2 receptor (setting [1]) and on human Y1 receptor (setting [2]) was below 6.00 throughout.
In the case of `CC[C@H](C)[C@H](NC(=O)[C@H](Cc1ccc(O)cc1)NC(=O)[C@H](CCCNC(=N)N)NC(=O)[C@H](CCCNC(=N)N)NC(=O)[C@H](CC(C)C)NC(=O)[C@H](CC(=O)O)NC(=O)[C@H](C)NC(=O)[C@H](C)NC(=O)[C@H](Cc1ccc(O)cc1)NC(=O)[C@H](CCC(N)=O)NC(=O)[C@H](C)NC(=O)[C@H](CCSC)NC(=O)[C@H](CCC(N)=O)NC(=O)[C@H](CCC(=O)O)NC(=O)[C@@H]1CCCN1C(=O)[C@@H](NC(=O)[C@H](C)NC(=O)[C@H](CC(N)=O)NC(=O)[C@H](CCC(=O)O)NC(=O)CNC(=O)[C@@H]1CCCN1C(=O)[C@H](Cc1ccc(O)cc1)NC(=O)[C@@H](NC(=O)[C@@H]1CCCN1C(=O)[C@H](CCC(=O)O)NC(=O)[C@H](CC(C)C)NC(=O)[C@@H]1CCCN1)C(C)C)[C@@H](C)O)C(=O)N[C@@H](CC(N)=O)C(=O)N[C@@H](CCSC)C(=O)N[C@@H](CC(C)C)C(=O)N[C@H](C(=O)N[C@@H](CCCNC(=N)N)C(=O)N1CCC[C@H]1C(=O)N[C@@H](CCCNC(=N)N)C(=O)N[C@@H](Cc1ccc(O)cc1)C(N)=O)[C@@H](C)O` [[Glu-10]-PP(2-36), [Glu10]PP2-36], the negative-log EC50 (pEC50) on human Y2 receptor was below 6.00.
In the case of “PLEPVYPGDNATPEQMAQYAADLRRYINALTRPRY-NH2 [[Ala-30]-PP(2-36), [Ala30]PP2-36]”, the pEC50 on human Y2 receptor (setting [1]) and at human Y1 receptor (setting [2]) was below 6.00 in each case.
As to “PLEPVYPGDNATPEQMAQYAADLRRYINNLTRPRY-NH2 [[Asn-30]-PP(2-36), [Asn30]PP2-36]”, the pEC50 at human Y2 receptor (setting [1]) and at human Y1 receptor (setting [2]) was below 6.00 in each case.
On to `CCCC[C@H](NC(=O)[C@H](CCC(N)=O)NC(=O)[C@H](CCC(=O)O)NC(=O)[C@@H]1CCCN1C(=O)[C@@H](NC(=O)[C@H](C)NC(=O)[C@H](CC(N)=O)NC(=O)[C@H](CC(=O)O)NC(=O)CNC(=O)[C@@H]1CCCN1C(=O)[C@H](Cc1ccc(O)cc1)NC(=O)[C@@H](NC(=O)[C@@H]1CCCN1C(=O)[C@H](CCC(=O)O)NC(=O)[C@H](CC(C)C)NC(=O)[C@@H]1CCCN1)C(C)C)[C@@H](C)O)C(=O)N[C@@H](C)C(=O)N[C@@H](CCC(N)=O)C(=O)N[C@@H](Cc1ccc(O)cc1)C(=O)N[C@@H](C)C(=O)N[C@@H](C)C(=O)N[C@@H](CC(=O)O)C(=O)N[C@@H](CC(C)C)C(=O)N[C@@H](CCCNC(=N)N)C(=O)N[C@@H](CCCNC(=N)N)C(=O)N[C@@H](Cc1ccc(O)cc1)C(=O)N[C@H](C(=O)N[C@@H](CC(N)=O)C(=O)N[C@@H](CCCC)C(=O)N[C@@H](CC(C)C)C(=O)N[C@H](C(=O)N[C@@H](CCCNC(=N)N)C(=O)N1CCC[C@H]1C(=O)N[C@@H](CCCNC(=N)N)C(=O)N[C@@H](Cc1ccc(O)cc1)C(N)=O)[C@@H](C)O)[C@@H](C)CC` [[Nle17,Nle30]-PP(2-36), [Nle17, Nle30]PP2-36], for which the pEC50 at human Y2 receptor (setting [1]) was below 6.00.
On to “PLEPVYPGDNATPEQMAQYAADLRRYINTLTRPRY-NH2 [[Thr-30]-PP(2-36), [Thr30]PP2-36]”, for which the pEC50 at human Y2 receptor (setting [1]) was below 6.00; on human Y4 receptor (human Y4-transformed COS-7 cells, [3H]-inositol phosphate turnover, peptide 45 min at 37 C, read-out: hY4 EC50), 8.97; at human Y1 receptor (setting [2]), below 6.00.
